From patent publication US11873496B2, “Methods of altering gene expression by perturbing transcription factor multimers that structure regulatory loops” (Whitehead Institute for Biomedical Research, priority 2017, dated 2024)

How the values were obtained:
[1] = molecular target: T1, FKBP degron-tagged YY1 protein (Mus musculus, UniProt Q00899+Q8C7D2); experiment: dTAG inducible degradation of FKBP tagged YY1 (western blot); format: cell-based
T1 construct: A clonal homozygous knock-in line expressing FKBP tagged YY1 was used for the degradation experiments; endogenous in cells; host or cells: V6.5 mES cells, clonal homozygous knock-in (repair plasmids pAW62.YY1.FKBP.knock-in.mCherry and pAW63.YY1.FKBP.knock-in.BFP)
Procedure: For the generation of the endogenously tagged lines, five hundred thousand mES cells were transfected with 2.5 ug Cas9 plasmid and 1.25 ug non-linearized repair plasmid 1 (pAW62.YY1.FKBP.knock-in.mCherry) and 1.25 ug non-linearized repair plasmid 2 (pAW63.YY1.FKBP.knock-in.BFP). Cells were sorted after 48 hours for the presence of GFP. Cells were expanded for five days and then sorted again for double positive mCherry and BFP cells. Thirty thousand mCherry+/BFP+ sorted cells were plated in a six-well plate in a 1:2 serial dilution (first well 15,000 cells, second well 7,500 cells, etc). The cells were grown for approximately one week in 2i medium and then individual colonies were picked using a stereoscope into a 96-well plate. Cells were expanded and genotyped by PCR (YY1_gPCR_3F/3R, Table S3). Clones with a homozygous knock-in tag were further expanded and used for experiments.
A clonal homozygous knock-in line expressing FKBP tagged YY1 was used for the degradation experiments. Cells were grown two passages off MEFs and then treated with dTAG-47 at a concentration of 500 nM for 24 hours.
The homozygous knock-in line expressing FKBP tagged YY1 was cultured on 2i+LIF media. Cells were treated with dTAG-47 at a concentration of 500 nM for 24 hours. After 24 hours of drug treatment, cells were washed three times with PBS and passaged onto a new plate. […]

[2] = test system: YY1-YY1 enhancer-promoter interactions; experiment: H3K27ac HiChIP of enhancer-promoter interactions after YY1 degradation and washout; format: cell-based, mouse; settings: mES cells
Procedure: HiChIP was performed as described in (Mumbach et al., 2016) with a few modifications. Ten million cells cross-linked for 10 min at room temperature with 1% formaldehyde in growth media and quenched in 0.125 M glycine. After washing twice with ice-cold PBS, the supernatant was aspirated and the cell pellet was flash frozen in liquid nitrogen and stored at −80° C.
Cross-linked cell pellets were thawed on ice, resuspended in 800 μL of ice-cold Hi-C lysis buffer (10 mM Tris-HCl pH 8.0, 10 mM NaCl, and 0.2% IGEPAL CA-630 with 1× cOmplete protease inhibitor (Roche, 11697498001)), and incubated at 4° C. for 30 minutes with rotation. Nuclei were pelleted by centrifugation at 2500 rcf for 5 min at 4° C. and washed once with 500 μL of ice-cold Hi-C lysis buffer. After removing supernatant, nuclei were resuspended in 100 μL of 0.5% SDS and incubated at 62° C. for 10 minutes. SDS was quenched by adding 335 μL of 1.5% Triton X-100 and incubating for 15 minutes at 37° C. After the addition of 50 μL of 10×NEB Buffer 2 (NEB, B7002) and 375 U of MboI restriction enzyme (NEB, R0147), chromatin was digested at 37° C. for 2 hours with rotation. Following digestion, MboI enzyme was heat inactivated by incubating the nuclei at 62° C. for 20 min. […]

HA-tagged YY1 = experiment: co-immunoprecipitation from nuclear extract treated with RNase A before IP with anti-tag antibodies, western blot quantification
[3] = test system: linear DNA template containing YY1 binding sites; experiment: In vitro DNA circularization assay (T4 DNA ligase); format: biochemical; settings: 0.25 nM DNA, 0.12 μg/μL protein, 20° C.; competitor 100 nM
Procedure: First, two plasmids (pAW49, pAW79) were generated. pAW49 contains YY1 binding sites separated by ˜3.5 kb of intervening DNA. pAW79 is identical except it contains filler DNA instead of the YY1 motifs. The intervening DNA was chosen based on looking at YY1 ChIP-seq and motif distribution in mES cells to identify regions that lacked YY1 occupancy and YY1 binding motifs. The YY1 binding motifs were chosen based on successful EMSAs (Sigova et al., 2015). Approximately 200 bp of sequence was added between the binding motifs and the termini in order to provide flexibility for the termini to ligate. The plasmid was built using Gibson assembly.
Next, a PCR was run using plasmid as a template to generate a linear piece of DNA (Table S5). This PCR product was PCR purified (Qiagen 28104) and then digested with BamHI (NEB R3136) and PCR purified. The BamHI digested template was used in the ligation assay.
The ligation assay was carried out as follows. Reactions were prepared on ice in 66 μL with the following components:
BSA control: 0.25 nM DNA, 1× T4 DNA ligase buffer (NEB B0202S), H2O, 0.12 μg/μL of BSA […]
Quantification was done using Image Lab version 5.2.1 (Bio-Rad Laboratories). First, band density of the starting product and ligation product were measured. Then the percent circularized was calculated: (ligation product)/(ligation product+starting band)*100. […]

T1 sequence (Q00899 with tags, fused parts or gaps): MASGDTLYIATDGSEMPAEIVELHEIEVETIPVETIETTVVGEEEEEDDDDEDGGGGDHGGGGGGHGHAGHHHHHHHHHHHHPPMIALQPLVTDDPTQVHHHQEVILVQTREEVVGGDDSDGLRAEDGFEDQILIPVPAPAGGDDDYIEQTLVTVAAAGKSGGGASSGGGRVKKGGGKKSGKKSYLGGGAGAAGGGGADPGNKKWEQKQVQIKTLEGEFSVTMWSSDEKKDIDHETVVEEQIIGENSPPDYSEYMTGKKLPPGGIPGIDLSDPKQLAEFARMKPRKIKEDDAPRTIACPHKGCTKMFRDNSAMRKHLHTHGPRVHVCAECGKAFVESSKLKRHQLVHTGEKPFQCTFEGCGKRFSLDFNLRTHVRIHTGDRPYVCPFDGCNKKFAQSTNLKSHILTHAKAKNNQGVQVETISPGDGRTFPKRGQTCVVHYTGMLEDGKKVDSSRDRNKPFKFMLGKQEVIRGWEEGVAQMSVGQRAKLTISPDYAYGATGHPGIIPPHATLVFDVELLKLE
T1 sequence (Q8C7D2 whole entry): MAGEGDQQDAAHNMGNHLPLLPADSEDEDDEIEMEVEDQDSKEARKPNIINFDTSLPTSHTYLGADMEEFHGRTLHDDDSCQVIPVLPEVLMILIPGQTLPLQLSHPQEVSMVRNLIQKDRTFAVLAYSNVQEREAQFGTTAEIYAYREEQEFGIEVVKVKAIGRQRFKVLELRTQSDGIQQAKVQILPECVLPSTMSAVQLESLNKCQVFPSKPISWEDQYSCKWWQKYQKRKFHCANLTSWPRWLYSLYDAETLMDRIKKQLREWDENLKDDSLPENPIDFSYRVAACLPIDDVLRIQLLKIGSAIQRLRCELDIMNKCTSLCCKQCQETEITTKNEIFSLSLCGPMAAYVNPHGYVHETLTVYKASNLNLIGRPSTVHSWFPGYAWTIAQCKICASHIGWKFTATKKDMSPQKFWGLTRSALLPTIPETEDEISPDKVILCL
T1 sequence (Q3U1J4 whole entry partner): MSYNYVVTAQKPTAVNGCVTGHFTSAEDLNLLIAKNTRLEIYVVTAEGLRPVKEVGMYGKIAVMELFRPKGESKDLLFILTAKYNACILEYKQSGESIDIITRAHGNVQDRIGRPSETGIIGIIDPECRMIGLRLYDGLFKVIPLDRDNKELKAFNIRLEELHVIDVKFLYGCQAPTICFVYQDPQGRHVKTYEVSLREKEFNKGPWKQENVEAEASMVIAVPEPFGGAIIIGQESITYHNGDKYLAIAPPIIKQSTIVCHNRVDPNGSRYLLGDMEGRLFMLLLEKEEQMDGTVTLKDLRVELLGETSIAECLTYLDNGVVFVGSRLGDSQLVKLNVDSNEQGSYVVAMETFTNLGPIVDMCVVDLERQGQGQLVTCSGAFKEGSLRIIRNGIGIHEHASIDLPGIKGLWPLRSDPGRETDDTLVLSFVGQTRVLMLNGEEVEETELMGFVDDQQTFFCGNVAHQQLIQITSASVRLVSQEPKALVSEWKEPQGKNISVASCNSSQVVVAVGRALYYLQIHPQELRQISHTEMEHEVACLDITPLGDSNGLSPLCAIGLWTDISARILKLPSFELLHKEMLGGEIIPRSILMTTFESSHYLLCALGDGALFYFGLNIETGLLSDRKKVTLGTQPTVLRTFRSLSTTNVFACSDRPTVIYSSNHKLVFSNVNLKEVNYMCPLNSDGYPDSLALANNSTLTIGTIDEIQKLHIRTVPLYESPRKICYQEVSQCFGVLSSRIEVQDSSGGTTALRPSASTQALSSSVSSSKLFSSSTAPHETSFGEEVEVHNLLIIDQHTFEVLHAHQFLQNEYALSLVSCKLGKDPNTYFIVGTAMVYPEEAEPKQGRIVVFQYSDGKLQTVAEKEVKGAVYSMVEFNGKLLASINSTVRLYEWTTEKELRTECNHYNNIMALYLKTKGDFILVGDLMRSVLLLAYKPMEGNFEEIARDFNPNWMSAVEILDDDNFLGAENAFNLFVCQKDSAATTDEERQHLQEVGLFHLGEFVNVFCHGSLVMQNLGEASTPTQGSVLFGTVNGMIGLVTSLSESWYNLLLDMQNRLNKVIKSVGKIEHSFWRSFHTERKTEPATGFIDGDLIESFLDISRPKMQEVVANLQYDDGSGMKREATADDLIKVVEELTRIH
HA-tagged YY1, sequence (P25490 whole entry): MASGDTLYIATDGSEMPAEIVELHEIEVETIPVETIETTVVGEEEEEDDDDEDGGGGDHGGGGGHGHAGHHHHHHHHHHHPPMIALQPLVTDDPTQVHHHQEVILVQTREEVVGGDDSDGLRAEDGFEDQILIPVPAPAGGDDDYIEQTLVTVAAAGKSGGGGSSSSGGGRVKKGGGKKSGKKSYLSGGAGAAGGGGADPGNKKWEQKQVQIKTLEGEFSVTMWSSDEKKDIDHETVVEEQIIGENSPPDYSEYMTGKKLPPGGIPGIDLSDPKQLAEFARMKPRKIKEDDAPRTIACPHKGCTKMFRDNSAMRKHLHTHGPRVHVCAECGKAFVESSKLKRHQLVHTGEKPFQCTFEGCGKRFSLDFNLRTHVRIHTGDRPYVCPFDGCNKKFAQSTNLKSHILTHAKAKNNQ

Molecule: CC[C@H](C(=O)N1CCCC[C@H]1C(=O)O[C@H](CCc1ccc(OC)c(OC)c1)c1ccccc1OCC(=O)NCCCCCCCCNc1ccc2c(c1)C(=O)N(C1CCC(=O)NC1=O)C2=O)c1cc(OC)c(OC)c(OC)c1 (stereo partly drawn) [dTAG-47, (2S)-(1R)-3-(3,4-dimethoxyphenyl)-1-(2-(2-((8-((2-(2,6-dioxopiperidin-3-yl)-1,3-dioxoisoindolin-5-yl)amino)octyl)amino)-2-oxoethoxy)phenyl)propyl 1-((S)-2-(3,4,5-trimethoxyphenyl)butanoyl)piperidine-2-carboxylate]
- YY1 protein degradation ([1]; FKBP degron tag knocked-in to both alleles of Yy1, mES cells, 24 hours treatment): rapid proteasome-mediated degradation
- washout time allowing recovery of YY1 protein levels ([1]; after 24 hours treatment at 500 nM, drug withdrawal): 5 days
- enhancer-promoter interactions after YY1 degradation (H3K27ac HiChIP) ([2]; treated): loss in enhancer-promoter interactions
- enhancer-promoter interactions after washout and recovery of YY1 levels (H3K27ac HiChIP) ([2]; washout): substantial increase in enhancer-promoter interactions

Molecule: FLAG-tagged YY1
- reduction in the amount of co-immunoprecipitated YY1 partner protein after RNase A treatment (HA-tagged YY1): 60%

Molecule: bovine serum albumin (BSA): control protein in the DNA circularization assay
- rate of DNA circularization [3]: did not increase the rate of DNA ligation

B1: competing 200 base pair DNA fragment: 200 base pair DNA fragment containing the YY1 consensus binding sequence, SEQ ID NO: 28 (nucleic acid)
DNA: GAGCAACAACAACAACGAACCGGTTCGACCTCCCCGGCCATCTTTCGACCTCCCCGGCCATCTTTCGACCTCCCCGGCCATCTTTCGACCTCCCCGGCCATCTTTCGACCTCCCCGGCCATCTTTCGACCTCCCCGGCCATCTTTCGACCTCCCCGGCCATCTTTCGACCTCCCGTCGACAGAGGCAGCAAAAGCCAGA
modifications: competitor DNA
- rate of DNA circularization [3]: abrogated circularization
